The target of experiment [1] is D3R (Homo sapiens, UniProt P35462). Description: Functional assay at D3R. The class given is cell-based.
Experiment [2] concerns the target hD2LR (Homo sapiens, UniProt P14416). Description: Displacement of 125I-IABN in HEK 293 cells transfected with hD2LR. It is filed as binding. As to conditions: for decrease in binding at D2R compared to the piperidinol (unbridged) analogue: comparator from ref 28.
In experiment [3] the target is D2R (Homo sapiens, UniProt P14416). Nature of the experiment: Functional assay at D2R. The class given is cell-based.
The target of experiment [4] is hD3R (Homo sapiens, UniProt P35462). Nature of the experiment: Displacement of 125I-IABN in HEK 293 cells transfected with hD3R. It is filed as binding. As to conditions: vs 1. A general note: Displacement assays read how much labelled ligand stays bound in the presence of the test substance.
hD3R, sequence (P35462 whole entry): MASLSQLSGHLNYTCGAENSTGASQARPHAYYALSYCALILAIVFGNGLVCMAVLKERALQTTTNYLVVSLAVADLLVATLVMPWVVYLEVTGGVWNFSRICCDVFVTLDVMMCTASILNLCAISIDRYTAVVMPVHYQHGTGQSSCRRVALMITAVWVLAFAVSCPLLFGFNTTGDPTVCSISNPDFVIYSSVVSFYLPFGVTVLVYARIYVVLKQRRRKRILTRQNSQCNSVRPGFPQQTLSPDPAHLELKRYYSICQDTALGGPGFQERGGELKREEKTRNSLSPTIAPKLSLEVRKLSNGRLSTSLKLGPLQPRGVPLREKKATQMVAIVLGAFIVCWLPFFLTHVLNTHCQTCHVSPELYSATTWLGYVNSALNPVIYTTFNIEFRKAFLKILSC

hD2LR, sequence (P14416 whole entry): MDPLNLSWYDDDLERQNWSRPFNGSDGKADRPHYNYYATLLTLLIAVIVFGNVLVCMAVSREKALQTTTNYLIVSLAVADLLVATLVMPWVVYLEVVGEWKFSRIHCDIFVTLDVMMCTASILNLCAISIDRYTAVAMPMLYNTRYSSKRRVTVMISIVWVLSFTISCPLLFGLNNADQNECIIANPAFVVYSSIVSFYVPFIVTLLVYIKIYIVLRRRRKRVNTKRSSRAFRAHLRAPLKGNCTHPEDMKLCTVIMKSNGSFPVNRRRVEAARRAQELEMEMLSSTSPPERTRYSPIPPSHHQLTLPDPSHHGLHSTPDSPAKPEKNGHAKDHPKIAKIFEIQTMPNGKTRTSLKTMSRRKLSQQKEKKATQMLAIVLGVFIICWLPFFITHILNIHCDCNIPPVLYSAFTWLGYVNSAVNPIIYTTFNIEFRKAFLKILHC
D3R, sequence (P35462 whole entry): as the sequence (P35462 whole entry) above
D2R, sequence (P14416 whole entry): as the sequence (P14416 whole entry) above

`O[C@@]1(c2ccc(Cl)c(Cl)c2)C[C@H]2CC[C@@H](C1)N2Cc1c[nH]c2ccccc12` [Compound 32, endo-8-(1H-Indol-3-ylmethyl)-3-(3,4-dichlorophenyl)-8-azabicyclo[3.2.1]octan-3-ol]: the “functional efficacy at D3R” value in experiment [1] is recorded as “antagonists”.

Consider `OC1(c2ccc(Cl)c(Cl)c2)CCN(Cc2c[nH]c3ccccc23)CC1` [Compound 2, reference compound], for which, in experiment [2] (D2R over D3R), the “selectivity for the D2 receptor subtype” value is “more than 10 fold”.

As to `COc1ccc2[nH]cc(CN3[C@@H]4CC[C@H]3C[C@](O)(c3ccc(SC)cc3)C4)c2c1` [Compound 40, endo-8-(5-Methoxy-1H-indol-3-ylmethyl)-3-(4-methylthiophenyl)-8-azabicyclo[3.2.1]octan-3-ol], in experiment [2], the “decrease in binding at D2R compared to the piperidinol (unbridged) analogue” value amounted to 100 fold.

With `O[C@@]1(c2ccc(Cl)cc2)C[C@H]2CC[C@@H](C1)N2Cc1csc2ccccc12` [Compound 41, endo-8-(Benzothien-3-ylmethyl)-3-(4-chlorophenyl)-8-azabicyclo[3.2.1]octan-3-ol], the “functional efficacy at D2R” value in experiment [3] is on record as “antagonists”. Besides, the “functional efficacy at D3R” value in experiment [1] is recorded as “antagonists”.

Turning to `CSc1ccc([C@]2(O)C[C@H]3CC[C@@H](C2)N3Cc2c[nH]c3ccccc23)cc1` [Compound 37, endo-8-(1H-Indol-3-ylmethyl)-3-(4-(methylthio)phenyl)-8-azabicyclo[3.2.1]octan-3-ol], the “decrease in binding at D2R compared to the piperidinol (unbridged) analogue” value in experiment [2] is recorded as 24 fold.

`O[C@]1(c2ccc(Cl)cc2)C[C@H]2CC[C@@H](C1)N2Cc1c[nH]c2ccccc12` [Compound 31, endo-8-(1H-Indol-3-ylmethyl)-3-(4-chlorophenyl)-8-azabicyclo-[3.2.1]octan-3-ol]: in experiment [2] (vs 1), the “decrease in affinity at D2R compared to 1” value was found to be 3 fold. In addition, the “increase in D3R binding affinity compared to the parent ligand 1” value in experiment [4] was determined as 10 fold. For the same molecule, in experiment [3], the “functional efficacy at D2R” value is on record as “antagonists”. Also, the “functional efficacy at D3R” value in experiment [1] is recorded as “antagonists”.

The record behind these values is PMC3157365 (Journal of medicinal chemistry, 2008).
